Test results taken from patent US8022239B2, “Mechanism-based inactivators of autotaxin” (The University of Memphis Research Foundation, priority 2008, dated 2011).

Biological target: T1, autotaxin (ATX) (Homo sapiens, UniProt Q13822)
T1 construct: concentrated conditioned serum-free medium (CCM) from MDA MB-435 cells as the source of ATX; endogenous in cells; host or cells: MDA-MB-435 cells (serum-free conditioned medium, concentrated ~10 fold)
Experiment: Autotaxin inactivation analysis: ATX-mediated hydrolysis of FS-3 (fluorescence), concentrated conditioned medium from MDA MB-435 cells as ATX source
Format: biochemical
Conditions: FS-3 substrate
Protocol: The test protocol was as follows:
MDA-MB-435 cells were cultured at 37° C. and 5% CO2 in Dulbecco's Modified Eagle Medium (DMEM) (MediaTech, Herndon, Va.) containing 5% fetal bovine serum (Hyclone, Logan, Utah), 100 U/ml penicillin, 100 μg/ml streptomycin (Hyclone, Logan, Utah) and 292 μg/ml L-glutamine (Hyclone, Logan, Utah). Cells were grown to ˜80% confluence at which time the cells were washed twice with sterile phosphate buffered saline prior to the addition of serum free DMEM containing L-glutamine. Conditioned medium was collected after 24-30 hours, supplemented with 20% ethylene glycol and was clarified by centrifugation at 3000×g and 4° C. for 10 min. The media was concentrated ˜10 fold and buffer exchanged into Tris (50 mM, pH 7.4) containing 20% ethylene glycol using an Amicon 8050 cell fitted with a PM30 filter (MILLIPORE®, Billerica, Mass.). Aliquots of concentrated conditioned media were stored at 4° C. until needed.
ATX inhibition was assayed using FS-3 (Echelon Biosciences, Inc., Salt Lake City, Utah, USA) as a substrate and ˜10 times concentrated conditioned serum-free medium (CCM) from MDA MB-435 cells as the source of ATX. Assays were performed in 96-well plates with CCM comprising one-third of the total volume and final FS-3 and charcoal-stripped fatty acid free BSA concentrations of 1 and 30 μM in assay buffer (1 mM each CaCl2 and MgCl2, 5 mM KCl, 140 mM NaCl, 50 mM Tris pH 8.0). Fluorescence was read at 5 minute intervals by a Synergy2 system (BioTek, Winooski, Vt.) with excitation and emission wavelengths of 485 and 538 nm, respectively. […] Fluorescence readings were normalized to vehicle control after subtraction of fluorescence in the absence of CCM. Data are shown as the mean±S.D. of at least three wells.

[1] = 3 uM, time 0 hour, low % response = effective inhibition

Compound	Fluorescence (% Response) (30 uM, time 0 hour)	Fluorescence (% Response) (100 uM, time 0 hour)	Fluorescence (% Response) [1]	Fluorescence (% Response) (3 uM, time 1 hour)	Fluorescence (% Response) (3 uM, time 3 hours)	Fluorescence (% Response) (3 uM, time 6 hours)	Fluorescence (% Response) (30 uM, time 1 hour)	Fluorescence (% Response) (30 uM, time 3 hours)	Fluorescence (% Response) (30 uM, time 6 hours)
CCCCCCCCCCCCCCCCCCOP(=O)(O)Oc1ccc(C(F)F)cc1 [Example 1, (18:0)-p-difluorophosphodiester]	96.1%	94.1%	–	–	–	–	–	–	–
CCCCCCCCCCCCCCCCCCOP(=O)(O)Oc1ccc(CF)cc1 [Example 2, (18:0)-p-monofluorophosphodiester]	57.3%	–	83.3%	47.9%	28.1%	25.0%	35.4%	9.4%	−2.1%
CCCCCCCCCCCCCCCCOP(=O)(O)Oc1ccc(C(F)F)cc1 [Example 3, (16:0)-p-difluorophosphodiester]	71.9%	–	94.8%	60.4%	44.8%	34.4%	37.5%	19.0%	–
CCCCCCCCCCCCCCCCOP(=O)(O)Oc1ccc(CF)cc1 [Example 4, (16:0)-p-monofluorophosphodiester]	26.0%	–	81.3%	50.0%	33.3%	21.9%	12.5%	5.2%	−2.1%
CCCCCCCCCCCCCCOP(=O)(O)Oc1ccc(C(F)F)cc1 [Example 5, (14:0)-p-difluorophosphodiester]	24.5%	–	92.5%	57.1%	42.7%	31.2%	14.3%	12.9%	9.6%
CCCCCCCCCCCCCCOP(=O)(O)Oc1ccc(CF)cc1 [Example 6, (14:0)-p-monofluorophosphodiester]	48.9%	–	95.9%	61.9%	45.7%	32.7%	31.3%	25.0%	18.5%
CCCCCCCCCCCCOP(=O)(O)Oc1ccc(C(F)F)cc1 [Example 7, (12:0)-p-difluorophosphodiester]	52.0%	–	93.9%	64.5%	48.3%	37.0%	36.2%	29.4%	24.9%
CCCCCCCCCCCCOP(=O)(O)Oc1ccc(CF)cc1 [Example 8, (12:0)-p-monofluorophosphodiester]	89.1%	–	99.4%	70.0%	52.2%	40.6%	63.0%	48.4%	37.7%
CCCCCCCCCCCCCCCCOP(=O)(O)Oc1ccccc1CF [Example 10, (16:0)-o-monofluorophosphodiester]	0.4%	–	86.6%	29.3%	10.6%	4.7%	−16.8%	−18.7%	−17.0%
